In patent US12110289B2, “Heterocyclic compounds, preparation methods and uses thereof” (InventisBio Co., Ltd., priority 2020, dated 2024):
Read-outs that look alike come from different tables or passages of the source.

Experiments:
NCI-H358 xenograft = experiment: NSCLC H358 xenograft model, tumor volume; type: in vivo, BALB/c nude mice
Procedure: (§1) All the procedures related to animal handling, care and the treatment in this study were performed according to the guidelines approved by the Institutional Animal Care and Use Committee (IACUC) of SIPPER B&K following the guidance of the Association for Assessment and Accreditation of Laboratory Animal Care (AAALAC). At the time of routine monitoring, the animals were checked for any effects of tumor growth on normal behavior such as mobility, food and water consumption (by looking only), body weight gain/loss (body weights were measured twice weekly), eye/hair matting and any other abnormal effect. Death and observed clinical signs were recorded on the basis of the numbers of animals within each subset.
(§2) The NCI-H358, SW837, NCI-H2122 tumor cells were purchased from the American Type Culture Collection (ATCC). Cells were maintained in vitro as monolayer cultured in RPMI-1640 or DMEM medium supplemented with 10% fetal bovine serum, 50 IU/ml penicillin/streptomycin (GIBCO) at 37° C. in an atmosphere of 5% CO2 in air. The tumor cells were routinely sub cultured twice weekly by trypsin-EDTA treatment. The cells growing in an exponential growth phase were harvested and counted for tumor inoculation.
(§3) For tumor bearing models, female 6- to 8-week-old athymic BALB/c nude mice were used for human cancer cell lines. Each mouse was inoculated subcutaneously at the right flank with tumor cells (10×10^6) in 0.1 ml of PBS. The treatments were started when the average tumor size reached approximately 200-250 mm^3. Carboplatin, Cisplatin was injected twice a week by i.p. Vehicles and other test articles were given orally as a suspension by gavage once daily during the study or treatment period.
(§4) Tumor volume was calculated by measuring two perpendicular diameters using the following formula: (L×W 2)/2 in which L and W refer to the length and width tumor diameter, respectively. Results are expressed as mean and standard deviation of the mean.

pooled human hepatocytes = experiment: Human hepatocyte clearance study; type: in vitro ADME; conditions: for Human Hepatocyte Remaining Percentage @ 120 min (%): working cell density 2 × 10^6 viable cells/mL
Procedure: (§5) The in vitro human hepatocyte clearance of compounds described here was studied using pooled human hepatocytes purchased from BioreclamationIVT (Westbury, NY, Cat #X008001, Lot #TQJ). The assay was conducted according to manufacturer's instruction. Briefly, 10 mM stock solutions of test compounds and positive control (Verapamil) were prepared in 100% DMSO. Thawing media (50 mL) used in the study consists of 31 mL Williams E medium (GIBCO Cat #12551-032), 15 mL isotonic percoll (GE Healthcare Cat #17-0891-09), 500 uL 100× GlutaMax (GIBCO Cat #35050), 750 uL HEPES (GIBCO Cat #15630-080), 2.5 mL FBS (Corning Cat #35-076-CVR), 50 uL human insulin (GIBCO Cat #12585-014) and 5 uL dexamethasone (NICPBP). Incubation media is made of Williams E medium supplemented with 1× GlutaMax. Both thawing medium and incubation medium (serum-free) were placed in a 37° C. water bath for at least 15 minutes prior to use. Compound stock solutions were diluted to 100 μM by combining 198 μL of 50% acetonitrile/50% water and 2 μL of 10 mM stock solution. Verapamil was use as positive control in the assay. Vials of cryopreserved hepatocytes were removed from storage and thawed in a 37° C. water bath with gentle shaking. Contents of the vial were poured into the 50 mL thawing medium conical tube. Vials were centrifuged at 100 g for 10 minutes at room temperature. […] […] […] The boiled hepatocytes were used to prepare negative samples. Aliquots of 198 μL hepatocytes were dispensed into each well of a 96-well non-coated plate. The plate was placed in the incubator on an orbital shaker at 500 rpm for approximately 10 minutes. Aliquots of 2 μL of the 100 μM test compound or positive control were added into respective wells of the non-coated 96-well plate to start the reaction. This assay was performed in duplicate. The plate was incubated in the incubator on an orbital shaker at 500 rpm for the designated time points. Twenty-five microliter of contents were transferred and mixed with 6 volumes (150 μL) of cold acetonitrile with IS (200 nM imipramine, 200 nM labetalol and 200 nM diclofenac) to terminate the reaction at time points of 0, 15, 30, 60, 90 and 120 minutes. Samples were centrifuged at 3,220 g for 25 minutes and aliquots of 150 μL of the supernatants were used for LC-MS/MS analysis. For data analysis, all calculations were carried out using Microsoft Excel. Peak areas were determined from extracted ion chromatograms. The in vitro half-life (t1/2) of parent compound was determined by regression analysis of the percent parent disappearance vs. time curve. […] Scaling factors for in vivo intrinsic clearance prediction using human hepatocytes are listed as: liver weight (g liver/kg body weight): 25.7; hepatocyte concentration (10^6 cells/g liver): 99; scaling factor: 2544.3.

[1] = Human hepatocyte clearance study; type: in vitro ADME; conditions: human, pooled cryopreserved human hepatocytes (suspension), working cell density 2 × 10^6 viable cells/mL; for hepatocyte CLint at 1 µM: read-out: Human In vitro Clint (μl/min/10^6 cells); for half-life at 1 µM: read-out: Human In vitro T1/2; for CLint scaled at 1 µM: read-out: Human Scale-up Clint
Procedure: as §5

[2] = test system: Lung cancer cell line NCI-H358 containing KRas G12C mutation; experiment: Assay for cell proliferation (Cell-titer Glo, 5 days); type: cell-based, human; conditions: for IC50: Homo sapiens, NCI-H358, 120 h, read-out: IC50 (nM), Inhibition of NCI-H358 Cell Proliferation
Outline: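 NCI-H358 (KRas G12C) cells, 2000 per well, attached overnight at 37 °C, 5% CO2, then treated with compound for 5 days at 0.5% DMSO final. Proliferation measured by CellTiter-Glo luminescence after 10 min at RT.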

SW837 xenograft = experiment: Colorectal adenocarcinoma SW837 xenograft model, tumor volume; type: in vivo, BALB/c nude mice
Procedure: as §1, §2, §3, §4

[3] = Rat PK study, single i.g. dose; type: in vivo; conditions: female, SD, plasma, PO, 10 mg/kg
Procedure: The pharmacokinetic (PK) profile of compounds following single i.g in SD rat obtained from […] Laboratory Animal Co., LTD of Shanghai was determined. Three female rats of weight around 220 g were used. Compounds were prepared at 1 mg/ml with the formulation of 10% DMSO+10% solutol HS15+80% (10% HPβCD in water). Blood samples (0.2 mL) were collected at 0 h (pre-dose) and 0.25, 0.5, 1, 2, 4, 8, 24 h time points after administration of compounds at the dose of 10 mg/kg. The collected blood samples were centrifuged without delay and the plasma was separated and transferred into tubes before storage at -70° C. prior to analysis. Aliquots of the plasma unknowns, blank and calibration standards were placed in 1.5 mL tubes and mixed with acetonitrile/methanol (1/1, v/v) containing IS. After vortexing for 5 min, each sample was centrifuged at 14000 rpm at 4° C. for 10 min. The supernatant were injected into the LC-MS/MS system. […] Eluates were analyzed using an API4000 Q-Trap mass spectrometer with a TurboIonSpray interface. Chromatographic separation was done with a mobile phase composed of water with 0.1% formic acid (solution A) and acetonitrile with 0.1% formic acid (solution B). The mobile phase was delivered at a flow rate of 0.6 mL/min, using a stepwise gradient elution program. To improve the sensitivity of the test compound screening, a MRM method in positive electrospray ionization mode was employed. Mass spectrometry data was acquired and analyzed using AB Sciex Analyst version 1.6.2 software. The pharmacokinetic parameters were derived using standard noncompartmental methods with Phoenix WinNonLin Professional Version 8.1.

[4] = NCI-H358, 5 days, Cell-titer Glo

SMILES	reduction of tumor volume, combined treatment vs either agent alone (NCI-H358 xenograft; Compound 145 at 5 mg/kg combined with carboplatin at 30 mg/kg, FIG. 4)	Human Hepatocyte Remaining Percentage @ 120 min (%) (pooled human hepatocytes)	hepatocyte CLint at 1 µM [1] [µL/min/1e6 cells]	half-life at 1 µM [1] [h]	CLint scaled at 1 µM [1] [mL/min/kg]	IC50 [2, 4] [nM]	reducing tumor volume compared with AMG510 (NCI-H358 xenograft; 30 mg/kg oral once daily vs AMG510 at 30 mg/kg, FIG. 2)	human hepatocyte clearance profile compared to control compounds (pooled human hepatocytes)	potency in inhibiting KRAS G12C compared with corresponding isopropyl analogs [2]	IC50 [2] [nM]	fold more potent: 2-amino-6-fluoro-phenyl compound vs. corresponding 2-fluoro-phenyl compound at R8 ([2]; NCI-H358 IC50 comparison)	reducing tumor volume compared with AMG510 (SW837 xenograft; 60 mg/kg oral once daily vs AMG510 at 60 mg/kg, FIG. 1)	reduction of tumor volume, combined treatment vs either agent alone (SW837 xenograft; Compound 44 at 30 mg/kg combined with trametinib at 1 mg/kg, FIG. 6)	AUC(0-t) ([3]; read-out: Rat PO (10 mpk) AUC last) [µM·h]	Cmax ([3]; read-out: Rat PO (10 mpk) Cmax) [nM]	bioavailability ([3]; read-out: Rat PO (10 mpk) F %) [%]
C=CC(=O)N1C[C@H](C)N(c2nc(=O)n(-c3c(F)cc4c(ncn4C)c3C(C)C)c3nc(-c4c(N)cccc4F)c(F)cc23)C[C@H]1C (atropisomer, axis not shown) [Compound 145]	much better reduction of tumor volume	82.9	1	11.5	2.6	1.4										
C=CC(=O)N1C[C@H](C)N(c2nc(=O)n(-c3c(C4CC4)ncnc3C3CC3)c3nc(-c4c(N)cccc4F)c(F)cc23)C[C@H]1C [Compound 44]		61.7	4	2.87	10.2		more effective than AMG510	better human hepatocyte clearance profile	better potency	2.1	about 19 ×	more effective than AMG510	much better reduction of tumor volume	4.3	1380	71
C=CC(=O)N1CCN(c2nc(=O)n(-c3c(C4CC4)ncnc3C3CC3)c3nc(-c4c(N)cccc4F)c(Cl)cc23)[C@@H](C)C1 [Compound 124]		37.5	8.5	1.35	21.7	2.4										
C=CC(=O)N1CCN(c2nc(=O)n(-c3c(C4CC4)ncnc3C3CC3)c3nc(-c4c(O)cccc4F)c(Cl)cc23)[C@@H](C)C1 [Compound 125]		16.5	14.5	0.8	36.8	6.1										
C=CC(=O)N1C[C@H](C)N(c2nc(=O)n(-c3c(C4CC4)ncnc3C3CC3)c3nc(-c4c(O)cccc4F)c(Cl)cc23)C[C@H]1C [Compound 127]		55.5	4.4	2.64	11.1	3.5										
C=CC(=O)N1C[C@H](C)N(c2nc(=O)n(-c3c(C4CC4)ncnc3C3CC3)c3nc(-c4ccccc4F)c(Cl)cc23)C[C@H]1C [Compound 128]		39.9	10.3	1.12	26.1	8.7										
